Test results taken from BindingDB's records for doi:10.1021/jm960873x (University of California, 1997).

Key:
[1] = Observed inhibition activity against protein phosphatase 1 (PP1)
[2] = Inhibition activity against protein phosphatase 1 (PP1), activity taken from literature
[3] = Observed inhibition activity of the compounds against protein phosphatases 1 (PP1)

Structure (SMILES)	IC50 [1] [nM]	IC50 [2] [nM]	IC50 [3] [nM]
C/C=C1/C(=O)N[C@@H](C(=O)O)[C@H](C)C(=O)N[C@@H](CCCNC(=N)N)C(=O)N[C@@H](/C=C/C(C)=C/[C@H](C)[C@H](Cc2ccccc2)OC)[C@H](C)C(=O)N[C@@H](C(=O)O)CCC(=O)N1C [(5R,6S,9S,12S,13S,16R)-2-Eth-(Z)-ylidene-9-(3-guanidino-propyl)-12-((1E,3E)-(5S,6S)-6-methoxy-3,5-dimethyl-7-phenyl-hepta-1,3-dienyl)-1,6,13-trimethyl-3,7,10,14,19-pentaoxo-1,4,8,11,15pentaaza-cyclononadecane-5,16-dicarboxylic acid]	0.42	3	
COC[C@@H]([C@H](O)[C@H](O)C(=O)N[C@H](C)C[C@H](C)c1nc(/C=C/CC2O[C@]3(CC(O)C2C)OC([C@H](C[C@H](O)[C@H](C)[C@H](O)[C@H](C)/C=C(C)/C(C)=C/C=C/C(C)=C\C#N)OC)[C@H](OP(=O)(O)O)C3(C)C)co1)N(C)C (some centres undefined) [Calyculin C]			1.5
CO[C@H]([C@H](O)CC(=O)[C@@H](C)[C@@H](O)CC[C@@H](C)[C@@H]1O[C@]2(CC[C@@H](C)[C@H](CC[C@H](C)C(C)=O)O2)CC[C@@H]1C)[C@H](OC(=O)C[C@@H](O)C1=C(C)C(=O)OC1=O)C(C)C [TAUTOMYCIN]			0.67
